Each block holds one molecule with its values, some of them ahead of it. No end group written: not given here.
How the values were obtained:
[1] = system: primary human osteoclast precursors; test: TRAP stain (multinucleated TRAP-positive cells/well); format: cell-based
Description: Primary human osteoclast precursors were seeded onto europium chelate-labeled collagen covalently bound to a maleic anhydride-derivatized polystyrene plate at 10,000 cells/well and cultured in medium containing soluble RANK ligand with and without interferon γ. After 9 days, cell culture media were assayed for fluorescent collagen peptides as described in Example 1. Cells in the plate were subsequently stained for TRAP (Sigma # 386-A).
In another experiment, osteoclast precursors were cultured in differentiation medium with and without different concentrations of alendronate. After 7 days the media were renewed and, after an additional 3 days, the cell culture media were sampled as described in Example 1. Cells in the plate were subsequently stained for TRAP (Sigma # 386-A).

[2] = system: primary human osteoclasts; test: OsteoLyse assay: release of europium chelate-labeled collagen fragments by osteoclasts; format: cell-based; parameters: inhibition of bone matrix degradation: dose or concentration left out as unconfirmed
Description: Remove a 96-well cell culture plate to which europium chelate-labeled collagen (e.g., collagen labeled with Eu^3+-N′-(p-isothiocyanatobenzyl) diethylenetriamine-N^1,N^2,N^3-tetraacetic acid) is covalently bound from 4° C. storage and let it warm to room temperature. Seed mature osteoclasts or osteoclast precursors (human or non-human) onto the cell culture plate in medium containing M-CSF and soluble RANK ligand. If using Cambrex's primary human osteoclast precursors (Poietics™ Human Osteoclast Precursors), seed the cells at a density of 10,000 cells/well in osteoclast precursor differentiation medium (Cambrex product # PT-8001). See Example 2 for a detailed protocol for the culture of primary human osteoclast precursors (Cambrex product # 2T-110). Precursors cultured in the absence of soluble RANK ligand can serve as “undifferentiated” controls.
Culture the cells for 6 days and then renew the cell culture medium. Fresh medium preferably contains the same concentrations of M-CSF and soluble RANK ligand as in the original day 0 medium. Unused control and differentiation media from day 0 can be frozen (on day 0) and used for the day 6 medium changes.
At least two different types of protocols can be used. If the assay is used to measure the effect of a test compound on differentiation of the osteoclast precursor, the test compound typically is added at day 0 and removed at day 6. However, if the assay is used to measure the effect of a test compound on mature osteoclast function (i.e., bone matrix collagen degradation), the test compound typically is added at day 6 with the new medium addition.
The cell culture medium can be sampled at any time after the medium change. Because a very small volume (5 to 10 μl) of medium is sampled, it is very easy to do time-course studies by repeatedly sampling the medium on sequential days. Medium volumes greater than 10 μl are unnecessary and, because an excess of fluorophore releasing reagent with respect to sample is desired, actually may lead to inefficient counting of the fluorophore as the ratio of fluorophore releasing reagent to sample decreases. […]
Determine the fluorescence of each well of the assay vessel in a time-resolved fluorescence fluorimeter (e.g., a Wallac Victor, with excitation at 340 nm and emission at […]) over a […] time period after an initial delay of 400 μseconds.
Primary human osteoclast precursors were seeded onto europium chelate-labeled collagen covalently bound to a maleic anhydride-derivatized polystyrene plate (Pierce Reacti-Bind™) at 10,000 cells/well and cultured in differentiation medium containing (1) no calcitonin, (2) calcitonin added only at day 5, or (3) calcitonin added on both days 0 and 5. Ten μl samples of culture media were counted after a total of 6 days. […]

[3] = system: osteoclast precursors; test: Osteoclast-mediated degradation of covalently bound FITC-labeled collagen (DQ collagen); format: cell-based, human; conditions: 1 ng/ml; days 5, 7 and 9 of culture; FITC-labeled bovine type I collagen
Description: FITC-labeled bovine type I collagen (DQ collagen, Molecular Probes, Inc.) was covalently bound to the surface of a maleic anhydride-derivatized 96-well tissue culture plate. Osteoclast precursors were cultured, with and without differentiation, in the plate as described in Example 2. Interferon γ (1 ng/ml) was added to some wells. At days 5, 7 and 9 of culture, 10 μl samples of each well were collected and added to 200 μl phosphate-buffered saline and counted in a fluorimeter (485/535 nm).

[4] = 9 days of culture, medium with soluble RANK ligand

IC50 ([2]; Osteoclast, OsteoLyse assay, primary human osteoclasts, read-out: IC50, in vitro inhibition of bone resorption): ~2 µM
Molecule: NCCCC(O)(P(=O)(O)O)P(=O)(O)O [alendronate]
inhibition of differentiation of osteoclast precursors (multinucleated TRAP-positive osteoclasts) ([1]; different concentrations, medium renewed after 7 days, 3 additional days): did not inhibit

Molecule: calcitonin (CGNLSTCMLGTYTQDFNKFHTFPQTAIGVGAP; ends and bridges not checked; cysteine pairing not given here; UniProt P01258 85-116, looked up)
effect on resorptive activity of the osteoclasts ([2]; calcitonin added on days 0 and 5 (prior exposure on day 0)): little effect
inhibition of bone matrix degradation ([2]; calcitonin for 24 hours (added day 5 of culture), counted after 6 days): 88%

IC50, percent inhibition relative to controls, TRAP assay [1, 4]: approximately 0.1 ng/ml
IC50, percent inhibition relative to controls, OsteoLyse assay [2, 4]: approximately 0.1 ng/ml
Molecule: interferon γ [cytokine added to osteoclast precursor cultures]
inhibition of osteoclast-mediated collagen degradation [3]: completely inhibited
